# Measured values from BindingDB's records for doi:10.1002/cbic.201100007 (Yale University, 2011).
# pKi: −log10 of the molar value.
# Molecular target: T1, dCTP pyrophosphatase 1 (Homo sapiens, UniProt Q9H773)
# T1 sequence (Q9H773 whole entry): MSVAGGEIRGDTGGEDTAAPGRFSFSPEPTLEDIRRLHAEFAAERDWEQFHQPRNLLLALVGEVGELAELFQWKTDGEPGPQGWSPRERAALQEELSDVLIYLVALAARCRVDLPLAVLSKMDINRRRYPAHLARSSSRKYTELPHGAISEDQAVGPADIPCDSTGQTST
# Experiment: Enzyme Assay
# Conditions: pH 7.4; 25 °C
# Method: Kinetic enzyme assays were performed in a 384-well, white plates (Nunc) on a Wallac Victor 2 plate reader using human DCTPP1 and triptolide and analogues.
smiles,measurement,value
"CC(C)[C@]12O[C@H]1[C@@H]1O[C@@]13[C@@]1(C)CCC4=C(COC4=O)[C@]1(O)C[C@@H]1O[C@@]13C2=O [5-Hydroxytriptonide, 6]",pKi,3.45
"CC(C)[C@]1(O)[C@H](O)[C@@H]2O[C@]23[C@]2(O[C@H]2CC2C4=C(CC[C@@]23C)C(=O)OC4)[C@@H]1O (some centres not stated) [Triptriolide, 5]",pKi,4.07
